The pIC50 is the IC50 on a negative log10 scale, so that one unit is a factor of ten. By pKd is commonly meant the Kd on a negative log10 scale, so that one unit is a factor of ten. Read a high pKd as a small Kd.

The results in this text go back to ChEMBL document CHEMBL3797031, “Structure-activity relationship study of 4-substituted piperidines at Leu26 moiety of novel p53-hDM2 inhibitors” (Bioorg Med Chem Lett, 2016).

pIC50, pKd: −log10 of the molar value.

Cytochrome P450 2C9, sequence (P11712 whole entry): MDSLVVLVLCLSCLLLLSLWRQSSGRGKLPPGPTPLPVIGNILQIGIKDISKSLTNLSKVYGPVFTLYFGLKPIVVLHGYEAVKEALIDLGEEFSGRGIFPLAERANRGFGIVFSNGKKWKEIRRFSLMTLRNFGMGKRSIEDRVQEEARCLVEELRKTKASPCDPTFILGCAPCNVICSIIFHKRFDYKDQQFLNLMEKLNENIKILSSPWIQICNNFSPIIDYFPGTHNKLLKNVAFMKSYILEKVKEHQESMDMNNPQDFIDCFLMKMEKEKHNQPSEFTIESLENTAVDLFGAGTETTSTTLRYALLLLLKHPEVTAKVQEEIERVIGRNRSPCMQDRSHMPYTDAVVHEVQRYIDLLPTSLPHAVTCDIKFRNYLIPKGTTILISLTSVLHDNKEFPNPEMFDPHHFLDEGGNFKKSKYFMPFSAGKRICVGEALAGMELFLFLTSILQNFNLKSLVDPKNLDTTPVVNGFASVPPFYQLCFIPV

Tested on in one assay: not listed separately
Nature of the assay: Antiproliferative activity against p53 null human HCT116 cells. The settings on record: HCT-116. The format is functional, cell-based.
For `CCC[C@H]1N(C(=O)c2cnccc2C(F)(F)F)CCC[C@@]1(Oc1ccc(C(F)(F)F)cc1)C(=O)N1CCC(Oc2cccc(C(=O)O)n2)CC1`, the pIC50 is < 4.00.

A further assay addresses Cytochrome P450 2C9 (Homo sapiens, UniProt P11712). The assay can be described thus: Inhibition of CYP2C9 (unknown origin). The format is ADME.
Conditions: not given
For the molecule `CCC[C@H]1N(C(=O)c2cnccc2C(F)(F)F)CCC[C@@]1(Oc1ccc(C(F)(F)F)cc1)C(=O)N1CCC(Oc2cccc(C(=O)O)n2)CC1`, the negative-log IC50 (pIC50) was < 4.30.

The target in a further assay is Cytochrome P450 2D6 (Homo sapiens, UniProt P10635). Nature of the assay: Inhibition of CYP2D6 (unknown origin). The format is ADME.
Cytochrome P450 2D6, sequence (P10635 whole entry): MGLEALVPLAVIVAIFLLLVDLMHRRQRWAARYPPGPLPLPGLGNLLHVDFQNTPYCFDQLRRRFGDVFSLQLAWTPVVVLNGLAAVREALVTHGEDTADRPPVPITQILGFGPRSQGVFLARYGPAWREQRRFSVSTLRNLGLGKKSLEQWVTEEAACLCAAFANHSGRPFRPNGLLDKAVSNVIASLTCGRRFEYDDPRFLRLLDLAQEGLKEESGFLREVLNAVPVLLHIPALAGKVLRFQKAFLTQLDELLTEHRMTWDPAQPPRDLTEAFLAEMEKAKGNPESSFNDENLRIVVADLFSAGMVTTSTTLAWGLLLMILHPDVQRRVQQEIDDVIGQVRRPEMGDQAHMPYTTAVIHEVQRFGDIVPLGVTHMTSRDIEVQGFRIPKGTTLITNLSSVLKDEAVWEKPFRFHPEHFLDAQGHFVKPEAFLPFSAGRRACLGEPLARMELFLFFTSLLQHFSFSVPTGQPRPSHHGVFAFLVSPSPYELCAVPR
Conditions: not given
As to `CCC[C@H]1N(C(=O)c2cnccc2C(F)(F)F)CCC[C@@]1(Oc1ccc(C(F)(F)F)cc1)C(=O)N1CCC(Oc2cccc(C(=O)O)n2)CC1`, the pIC50 was < 4.30.

Another assay deals with Cytochrome P450 3A4 (Homo sapiens, UniProt P08684). Nature of the assay: Inhibition of CYP3A4 (unknown origin). The format is ADME.
Cytochrome P450 3A4, sequence (P08684 whole entry): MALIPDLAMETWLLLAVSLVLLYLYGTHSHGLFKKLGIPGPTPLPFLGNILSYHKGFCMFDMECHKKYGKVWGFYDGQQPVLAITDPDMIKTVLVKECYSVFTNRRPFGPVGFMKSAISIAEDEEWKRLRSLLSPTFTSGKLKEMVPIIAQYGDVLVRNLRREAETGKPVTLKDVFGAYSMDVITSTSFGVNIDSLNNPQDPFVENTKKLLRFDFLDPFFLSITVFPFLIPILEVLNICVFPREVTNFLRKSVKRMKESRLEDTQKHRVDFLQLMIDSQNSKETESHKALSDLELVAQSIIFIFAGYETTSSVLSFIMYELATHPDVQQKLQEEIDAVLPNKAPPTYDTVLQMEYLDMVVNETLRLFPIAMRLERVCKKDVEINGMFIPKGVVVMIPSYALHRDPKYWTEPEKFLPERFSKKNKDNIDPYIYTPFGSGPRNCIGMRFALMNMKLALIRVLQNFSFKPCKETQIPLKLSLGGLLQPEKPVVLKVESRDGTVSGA
Conditions: not given
Turning to `CCC[C@H]1N(C(=O)c2cnccc2C(F)(F)F)CCC[C@@]1(Oc1ccc(C(F)(F)F)cc1)C(=O)N1CCC(Oc2cccc(C(=O)O)n2)CC1`, the pIC50 was < 4.30.

Tested on in a further assay: not listed separately
Nature of the assay: Antiproliferative activity against human HCT116 cells expressing wild type p53. The settings on record: HCT-116. The format is functional, cell-based.
`CCC[C@H]1N(C(=O)c2cnccc2C(F)(F)F)CCC[C@@]1(Oc1ccc(C(F)(F)F)cc1)C(=O)N1CCC(Oc2cccc(C(=O)O)n2)CC1` gave a negative logarithm of the IC50 (pIC50) of 5.06.

Tested on in another assay: not listed separately
Nature of the assay: Antiproliferative activity against human SJSA1 cells expressing wild type p53. The format is functional, cell-based. The settings on record: SJSA-1.
The molecule `CCC[C@H]1N(C(=O)c2cnccc2C(F)(F)F)CCC[C@@]1(Oc1ccc(C(F)(F)F)cc1)C(=O)N1CCC(Oc2cccc(C(=O)O)n2)CC1` had a pIC50 of 5.33.

The test system of the next assay is SK-UT-1. The assay can be described thus: Antiproliferative activity against human SK-UT-1 cells expressing mutant p53. The format is functional, cell-based.
Conditions: not given
For `CCC[C@H]1N(C(=O)c2cnccc2C(F)(F)F)CCC[C@@]1(Oc1ccc(C(F)(F)F)cc1)C(=O)N1CCC(Oc2cccc(C(=O)O)n2)CC1`, the pIC50 was < 4.00.

The target of a further assay is T1, E3 ubiquitin-protein ligase Mdm2 (Homo sapiens, UniProt Q00987). Nature of the assay: Binding affinity to human MDM2 assessed as inhibition of interaction with p53 by fluorescence polarization assay.
T1 sequence (Q00987 whole entry): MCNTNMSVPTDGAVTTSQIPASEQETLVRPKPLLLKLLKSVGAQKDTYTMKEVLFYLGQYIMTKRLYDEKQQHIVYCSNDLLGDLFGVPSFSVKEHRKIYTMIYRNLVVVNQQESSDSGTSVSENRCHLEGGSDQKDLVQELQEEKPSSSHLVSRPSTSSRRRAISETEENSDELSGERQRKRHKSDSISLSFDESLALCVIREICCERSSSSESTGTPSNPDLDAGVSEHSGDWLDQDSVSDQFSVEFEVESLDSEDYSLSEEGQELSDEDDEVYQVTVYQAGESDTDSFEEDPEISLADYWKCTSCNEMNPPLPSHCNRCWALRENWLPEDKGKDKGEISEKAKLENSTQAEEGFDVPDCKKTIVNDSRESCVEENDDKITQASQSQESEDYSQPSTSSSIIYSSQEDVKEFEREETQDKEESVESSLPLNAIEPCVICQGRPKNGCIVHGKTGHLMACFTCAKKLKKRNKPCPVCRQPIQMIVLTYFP
Conditions: not given
A general note: In fluorescence polarisation assays a small probe gives low polarisation when free and higher when bound to something large.
Consider `CCC[C@H]1N(C(=O)c2cnccc2C(F)(F)F)CCC[C@@]1(Oc1ccc(C(F)(F)F)cc1)C(=O)N1CCC(Oc2ccccc2C#N)CC1`, for which the pIC50 was 5.06.
Regarding `CCC[C@H]1N(C(=O)c2cnccc2C(F)(F)F)CCC[C@@]1(Oc1ccc(C(F)(F)F)cc1)C(=O)N1CCC(Oc2ccncc2)CC1`, the pIC50 was 6.65.
Take `CCC[C@H]1N(C(=O)c2cnccc2C(F)(F)F)CCC[C@@]1(Oc1ccc(C(F)(F)F)cc1)C(=O)N1CCC(Oc2cc(C(N)=O)ccn2)CC1`: the negative logarithm of the IC50 (pIC50) is 5.06.
Still for that read-out and setting: as for `CCC[C@H]1N(C(=O)c2cnccc2C(F)(F)F)CCC[C@@]1(Oc1ccc(C(F)(F)F)cc1)C(=O)N1CCC(Oc2cccc(C(=O)O)n2)CC1`, the figure is 7.38.
As to `CCC[C@H]1N(C(=O)c2cnccc2C(F)(F)F)CCC[C@@]1(Oc1ccc(C(F)(F)F)cc1)C(=O)N1CCC(Oc2ccncn2)CC1`, the pIC50 was 6.42.
In the case of `CCC[C@H]1N(C(=O)c2cnccc2C(F)(F)F)CCC[C@@]1(Oc1ccc(C(F)(F)F)cc1)C(=O)N1CCC(Oc2cccc(OC)n2)CC1`, the pIC50 was 5.94.
As for `CCC[C@H]1N(C(=O)c2cnccc2C(F)(F)F)CCC[C@@]1(Oc1ccc(C(F)(F)F)cc1)C(=O)N1CCC(Oc2ncccc2C#N)CC1`, the pIC50 was 5.62.
In the case of `CCC[C@H]1N(C(=O)c2cnccc2C(F)(F)F)CCC[C@@]1(Oc1ccc(C(F)(F)F)cc1)C(=O)N1CCC(Oc2ncccc2CN)CC1`, the pIC50 was 5.11.
On the same count and under the same terms, in the case of `CCC[C@H]1N(C(=O)c2cnccc2C(F)(F)F)CCC[C@@]1(Oc1ccc(C(F)(F)F)cc1)C(=O)N1CCC(Sc2ccc(C)cc2)CC1` it was 5.03; in that of `CCC[C@H]1N(C(=O)c2cnccc2C(F)(F)F)CCC[C@@]1(Oc1ccc(C(F)(F)F)cc1)C(=O)N1CCC(Sc2ccccc2)CC1`, 5.70.
As to `CCC[C@H]1N(C(=O)c2cnccc2C(F)(F)F)CCC[C@@]1(Oc1ccc(C(F)(F)F)cc1)C(=O)N1CCC(Oc2cccc(Cl)c2)CC1`, the pIC50 was 5.68.
Same read-out and setting: as for `CCC[C@H]1N(C(=O)c2cnccc2C(F)(F)F)CCC[C@@]1(Oc1ccc(C(F)(F)F)cc1)C(=O)N1CCC(Oc2cccc(C#N)c2)CC1`, the figure is 6.40; as for `CCC[C@H]1N(C(=O)c2cnccc2C(F)(F)F)CCC[C@@]1(Oc1ccc(C(F)(F)F)cc1)C(=O)N1CCC(Oc2ccc(C#N)cc2)CC1`, 5.72.
Still for that read-out and setting: as for `CCC[C@H]1N(C(=O)c2cnccc2C(F)(F)F)CCC[C@@]1(Oc1ccc(C(F)(F)F)cc1)C(=O)N1CCC(Oc2cccc(Cl)n2)CC1`, the figure is 5.63.
Regarding `CCC[C@H]1N(C(=O)c2cnccc2C(F)(F)F)CCC[C@@]1(Oc1ccc(C(F)(F)F)cc1)C(=O)N1CCC(Oc2cccc(C(N)=O)n2)CC1`, the pIC50 was 6.95.
Still for that read-out and setting: in the case of `CCC[C@H]1N(C(=O)c2cnccc2C(F)(F)F)CCC[C@@]1(Oc1ccc(C(F)(F)F)cc1)C(=O)N1CCC(Oc2cccc(C(F)(F)F)n2)CC1` it was 5.69; in that of `CCC[C@H]1N(C(=O)c2cnccc2C(F)(F)F)CCC[C@@]1(Oc1ccc(C(F)(F)F)cc1)C(=O)N1CCC(Oc2cccc(C)c2)CC1`, 6.18.
Still for that read-out and setting: in the case of `CCC[C@H]1N(C(=O)c2cnccc2C(F)(F)F)CCC[C@@]1(Oc1ccc(C(F)(F)F)cc1)C(=O)N1CCC(Oc2cccnc2)CC1` it was 6.57; in that of `CCC[C@H]1N(C(=O)c2cnccc2C(F)(F)F)CCC[C@@]1(Oc1ccc(C(F)(F)F)cc1)C(=O)N1CCC(Oc2cc(C#N)ccn2)CC1`, 6.53.
On the same count and under the same terms, in the case of `CCC[C@H]1N(C(=O)c2cnccc2C(F)(F)F)CCC[C@@]1(Oc1ccc(C(F)(F)F)cc1)C(=O)N1CCC(Oc2ncccn2)CC1` it was 6.48; in that of `CCC[C@H]1N(C(=O)c2cnccc2C(F)(F)F)CCC[C@@]1(Oc1ccc(C(F)(F)F)cc1)C(=O)N1CCC(Oc2ccc(CN)cn2)CC1`, 6.10; in that of `CCC[C@H]1N(C(=O)c2cnccc2C(F)(F)F)CCC[C@@]1(Oc1ccc(C(F)(F)F)cc1)C(=O)N1CCC(Oc2ncccc2C(N)=O)CC1`, 5.37.
With `CCC[C@H]1N(C(=O)c2cnccc2C(F)(F)F)CCC[C@@]1(Oc1ccc(C(F)(F)F)cc1)C(=O)N1CCC(Oc2ccc(C#N)cn2)CC1`, the pIC50 was 6.31.
In the case of `CCC[C@H]1N(C(=O)c2cnccc2C(F)(F)F)CCC[C@@]1(Oc1ccc(C(F)(F)F)cc1)C(=O)N1CCC(Oc2cccc(C(=O)OC)n2)CC1`, the pIC50 was 6.41.
Consider `CCC[C@H]1N(C(=O)c2cnccc2C(F)(F)F)CCC[C@@]1(Oc1ccc(C(F)(F)F)cc1)C(=O)N1CCC(Oc2cccc(C#N)n2)CC1`, for which the pIC50 was 6.16.
On the same count and under the same terms, in the case of `CCC[C@H]1N(C(=O)c2cnccc2C(F)(F)F)CCC[C@@]1(Oc1ccc(C(F)(F)F)cc1)C(=O)N1CCC(Cc2ccccc2)CC1` it was 5.23; in that of `CCC[C@H]1N(C(=O)c2cnccc2C(F)(F)F)CCC[C@@]1(Oc1ccc(C(F)(F)F)cc1)C(=O)N1CCC(Oc2cccc(Br)n2)CC1`, 5.73; in that of `CCC[C@H]1N(C(=O)c2cnccc2C(F)(F)F)CCC[C@@]1(Oc1ccc(C(F)(F)F)cc1)C(=O)N1CCC(Oc2cccc(C(=O)NC)n2)CC1`, 6.94.
As to `CCC[C@H]1N(C(=O)c2cnccc2C(F)(F)F)CCC[C@@]1(Oc1ccc(C(F)(F)F)cc1)C(=O)N1CCC(Oc2ccccn2)CC1`, the pIC50 was 6.82.
`CCC[C@H]1N(C(=O)c2cnccc2C(F)(F)F)CCC[C@@]1(Oc1ccc(C(F)(F)F)cc1)C(=O)N1CCC(Oc2cnccn2)CC1`: the pIC50 is 5.97.
For `CCC[C@H]1N(C(=O)c2cnccc2C(F)(F)F)CCC[C@@]1(Oc1ccc(C(F)(F)F)cc1)C(=O)N1CCC(Oc2cccc(CN)n2)CC1`, the pIC50 was 6.76.
Same read-out and setting: in the case of `CCC[C@H]1N(C(=O)c2cnccc2C(F)(F)F)CCC[C@@]1(Oc1ccc(C(F)(F)F)cc1)C(=O)N1CCC(Oc2ccccc2C)CC1` it was 5.18; in that of `CCC[C@H]1N(C(=O)c2cnccc2C(F)(F)F)CCC[C@@]1(Oc1ccc(C(F)(F)F)cc1)C(=O)N1CCC(Oc2ccc(Cl)cc2)CC1`, 5.39.
In the case of `CCC[C@H]1N(C(=O)c2cnccc2C(F)(F)F)CCC[C@@]1(Oc1ccc(C(F)(F)F)cc1)C(=O)N1CCC(Oc2cc(CN)ccn2)CC1`, the pIC50 is 5.40.
As to `CCC[C@H]1N(C(=O)c2cnccc2C(F)(F)F)CCC[C@@]1(Oc1ccc(C(F)(F)F)cc1)C(=O)N1CCC(Oc2ccccc2Cl)CC1`, the pIC50 is 5.56.
For `CCC[C@H]1N(C(=O)c2cnccc2C(F)(F)F)CCC[C@@]1(Oc1ccc(C(F)(F)F)cc1)C(=O)N1CCC(Oc2ccc(C(N)=O)cn2)CC1`, the pIC50 is 6.84.
Still for that read-out and setting: in the case of `CCC[C@H]1N(C(=O)c2cnccc2C(F)(F)F)CCC[C@@]1(Oc1ccc(C(F)(F)F)cc1)C(=O)N1CCC(Oc2cncnc2)CC1` it was 6.28; in that of `CCC[C@H]1N(C(=O)c2cnccc2C(F)(F)F)CCC[C@@]1(Oc1ccc(C(F)(F)F)cc1)C(=O)N1CCC(Cc2ccc(C)cc2)CC1`, 4.59.
Take `CCC[C@H]1N(C(=O)c2cnccc2C(F)(F)F)CCC[C@@]1(Oc1ccc(C(F)(F)F)cc1)C(=O)N1CCC(Oc2ccccc2)CC1`: the pIC50 was 5.62.
Same read-out and setting: in the case of `CCC[C@H]1N(C(=O)c2cnccc2C(F)(F)F)CCC[C@@]1(Oc1ccc(C(F)(F)F)cc1)C(=O)N1CCC(Oc2cccc(C)n2)CC1` it was 5.30.
Still for that read-out and setting: in the case of `CCC[C@H]1N(C(=O)c2cnccc2C(F)(F)F)CCC[C@@]1(Oc1ccc(C(F)(F)F)cc1)C(=O)N1CCC(Oc2ccc(C)cc2)CC1` it was 5.06.

The target in a further assay is T1, E3 ubiquitin-protein ligase Mdm2. The assay can be described thus: Binding affinity to human MDM2 by temperature dependent fluorescence assay.
Conditions: not given
Molecule `O=C(c1cnccc1C(F)(F)F)N1CCCC(Oc2ccc(C(F)(F)F)cc2)(C(=O)N2CCN(c3ccccn3)CC2)C1` (centres undefined) showed a pKd of 6.30.
